Test systems include HL-60(TB) leukemia; SK-MEL-2 melanoma; IGROV1 ovarian; OVCAR-4 ovarian; OVCAR-3 ovarian; U251 CNS; COLO 205 colon; A549 NSCLC.
What all share (assay): NCI anticancer screen, dose series, 48 h

Several values for one entry are separate records, joined by “and”; a condition that tells them apart may be missing. Equal values may be shown once.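 Step 1: Grow cells in 96-well plates. Step 2: Expose to compound for 48 hours at 5 concentrations. Step 3: Interpolate endpoints linearly; if unreached, use highest concentration. Here, GI50 denotes the concentration required for 50% inhibition of growth. TGI is the concentration that stops growth completely.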 Bounds are passed on as bounds.

Consider `CN(C)c1cc2c(Nc3ccc4nc(Cc5ccccc5)[nH]c4c3)ncnc2cn1`, for which the GI50 with HL-60(TB) leukemia was over 25 µM; in the assay with SK-MEL-2 melanoma it was over 16.3 µM; in the assay on IGROV1 ovarian it was 9.21 µM; in the assay on OVCAR-4 ovarian, over 20.4 µM; in the assay with OVCAR-3 ovarian, over 18.3 µM; with U251 CNS, over 17.5 µM. Also, the GI50 in the assay with COLO 205 colon is over 25 µM; in the assay on A549 NSCLC, 11.8 µM. In addition, the TGI with HL-60(TB) leukemia, in the assay on SK-MEL-2 melanoma, in the assay on IGROV1 ovarian, in the assay with OVCAR-4 ovarian, with OVCAR-3 ovarian and in the assay on U251 CNS was over 25 µM throughout. In addition, the TGI in the assay with COLO 205 colon and in the assay on A549 NSCLC was over 25 µM in each case.

As for `CCS(=O)(=O)c1ccc(OC)c(Nc2ncc(-c3cccc(-c4ccccc4F)c3)o2)c1`, the GI50 with HL-60(TB) leukemia was over 25 µM; in the assay on SK-MEL-2 melanoma, over 25 µM; in the assay with IGROV1 ovarian, 6.1 µM; in the assay with OVCAR-4 ovarian, 3.79 µM; in the assay on OVCAR-3 ovarian it was 15.7 µM; in the assay with U251 CNS, 12.1 µM. Moreover, the GI50 with COLO 205 colon was over 20.1 µM; in the assay with A549 NSCLC it was over 25 µM. Further, the TGI with HL-60(TB) leukemia was over 25 µM; in the assay with SK-MEL-2 melanoma it was over 25 µM; in the assay with IGROV1 ovarian it was 20.7 µM; in the assay on OVCAR-4 ovarian it was over 25 µM; with OVCAR-3 ovarian, over 25 µM; in the assay on U251 CNS, over 25 µM. In addition, the TGI in the assay on COLO 205 colon and in the assay with A549 NSCLC was over 25 µM throughout.

Consider `COc1cc(C2=Nc3c/c(=C\c4c(O)[nH]c5ccc(Cl)cc45)ccc3=N2)cc(OC)c1OC`, for which the GI50 is 3.13 µM in the assay with HL-60(TB) leukemia; 9.01 µM in the assay with SK-MEL-2 melanoma; 5.46 µM in the assay on IGROV1 ovarian; 2.18 µM in the assay with OVCAR-4 ovarian; 3.07 µM in the assay on OVCAR-3 ovarian; 1.79 µM with U251 CNS. Besides, the values for the GI50 in the assay with COLO 205 colon and with A549 NSCLC were 2.45 µM and 2.87 µM, respectively. The TGI with HL-60(TB) leukemia came out at 14.6 µM; in the assay on SK-MEL-2 melanoma it was 30.2 µM; with IGROV1 ovarian, 20.3 µM; in the assay on OVCAR-4 ovarian, 7.9 µM; in the assay with OVCAR-3 ovarian, 11.1 µM; in the assay with U251 CNS it was 3.91 µM. Also, the TGI was determined as 7.27 µM in the assay on COLO 205 colon and 10.7 µM in the assay with A549 NSCLC.

Take `COC(=O)C1=C(C(=O)Nc2cccnc2)C2OC1(C(Cc1ccccc1)Oc1ccccc1)C1OC21` (stereo not drawn): the GI50 in the assay with HL-60(TB) leukemia was 0.569 µM; in the assay on SK-MEL-2 melanoma it was 12.9 µM; in the assay with IGROV1 ovarian, 9.17 µM; in the assay on OVCAR-4 ovarian it was 2.05 µM; in the assay on OVCAR-3 ovarian, 1.78 µM; in the assay with U251 CNS it was 10.7 µM. Besides, the GI50 with COLO 205 colon is 1.73 µM; in the assay on A549 NSCLC, 17.1 µM. The TGI was found to be 2.75 µM in the assay on HL-60(TB) leukemia; 25.9 µM in the assay on SK-MEL-2 melanoma; 25.8 µM with IGROV1 ovarian; 4.66 µM in the assay with OVCAR-4 ovarian; 3.2 µM in the assay with OVCAR-3 ovarian; 22.6 µM in the assay with U251 CNS. In addition, the TGI in the assay with COLO 205 colon was found to be 3.29 µM; in the assay with A549 NSCLC, 31.2 µM.

As to `CCN1CCN(CCNc2nccc(-c3c(-c4cccc(O)c4)nc4sccn34)n2)S1(=O)=O`, the GI50 in the assay on HL-60(TB) leukemia is 11.8 µM; in the assay on SK-MEL-2 melanoma it was 2.05 µM and 2.6 µM; with IGROV1 ovarian it was 11.9 µM and 5.5 µM; in the assay with OVCAR-4 ovarian, 19.5 µM and 12.1 µM; with OVCAR-3 ovarian, 20.1 µM and 21.4 µM; in the assay on U251 CNS it was 30.8 µM and 11.1 µM. Besides, the GI50 in the assay with COLO 205 colon is 0.296 µM and 0.336 µM; with A549 NSCLC, 15.4 µM and 9.27 µM. For the same compound, the TGI in the assay with HL-60(TB) leukemia is 32.5 µM; in the assay on SK-MEL-2 melanoma, 10.4 µM and 7.27 µM; in the assay with IGROV1 ovarian, 32.5 µM and > 100 µM; with OVCAR-4 ovarian, 32.5 µM and > 100 µM; in the assay with OVCAR-3 ovarian it was 32.5 µM and > 100 µM; in the assay with U251 CNS, 32.5 µM and > 100 µM. Further, the TGI in the assay on COLO 205 colon is 32.5 µM and 15.9 µM; in the assay with A549 NSCLC, 32.5 µM and > 100 µM.

Consider `CC(C)[C@@H]1NC(=O)[C@]2(C)CSC(=N2)c2csc(n2)CNC(=O)C[C@@H](/C=C/CCS)OC1=O`, for which the GI50 with HL-60(TB) leukemia was 0.361 µM; with SK-MEL-2 melanoma, 0.049 µM; with IGROV1 ovarian, 0.119 µM; in the assay with OVCAR-4 ovarian, 0.416 µM; in the assay on OVCAR-3 ovarian, 0.359 µM; with U251 CNS, 0.0843 µM. Also, the GI50 in the assay with COLO 205 colon was 0.228 µM; with A549 NSCLC, 0.0383 µM. For the same compound, the TGI is over 100 µM in the assay with HL-60(TB) leukemia; 1.49 µM in the assay with SK-MEL-2 melanoma; 2.77 µM in the assay on IGROV1 ovarian; over 100 µM with OVCAR-4 ovarian; 4.12 µM in the assay on OVCAR-3 ovarian; 1.02 µM with U251 CNS. The TGI in the assay on COLO 205 colon stood at 0.709 µM; with A549 NSCLC, 20.9 µM.

Take `Nc1ccn(C2OC(CO[P+](=O)OC3C(CO[P+](=O)OC4C(CO[P+](=O)OC5C(CO[P+](=O)OC6C(CO[P+](=O)OC7C(CO[P+](=O)OC8C(CO[P+](=O)OC9C(CO[P+](=O)OC%10C(CO[P+](=O)OC%11C(CO)OC(n%12ccc(N)nc%12=O)C%11(F)F)OC(n%11ccc(N)nc%11=O)C%10(F)F)OC(n%10ccc(N)nc%10=O)C9(F)F)OC(n9ccc(N)nc9=O)C8(F)F)OC(n8ccc(N)nc8=O)C7(F)F)OC(n7ccc(N)nc7=O)C6(F)F)OC(n6ccc(N)nc6=O)C5(F)F)OC(n5ccc(N)nc5=O)C4(F)F)OC(n4ccc(N)nc4=O)C3(F)F)C(O)C2(F)F)c(=O)n1` (stereo not drawn): the TGI in the assay with HL-60(TB) leukemia is 0.18 µM; in the assay on IGROV1 ovarian, over 100 µM; with OVCAR-4 ovarian, over 100 µM; in the assay on OVCAR-3 ovarian it was over 100 µM; with U251 CNS, over 100 µM; with COLO 205 colon, over 100 µM. This compound also yielded a TGI in the assay with A549 NSCLC of over 100 µM. Besides, the GI50 is 35 µM in the assay with SK-MEL-2 melanoma, over 100 µM in the assay on IGROV1 ovarian, over 100 µM in the assay on OVCAR-4 ovarian and 0.369 µM in the assay on COLO 205 colon.

On to `S=C(Nc1ccc(-c2nc3ccccc3s2)cc1)Nc1ccccn1`, for which the GI50 is 30.7 µM in the assay on HL-60(TB) leukemia; 22.7 µM in the assay with SK-MEL-2 melanoma; 29.8 µM in the assay on IGROV1 ovarian; 37 µM in the assay on OVCAR-4 ovarian; 18.7 µM in the assay with OVCAR-3 ovarian; 27.9 µM in the assay with U251 CNS. For the same compound, the GI50 was 18.9 µM in the assay on COLO 205 colon and 27 µM in the assay with A549 NSCLC. In addition, the TGI in the assay on HL-60(TB) leukemia is over 100 µM; in the assay with SK-MEL-2 melanoma it was 50.3 µM; in the assay on IGROV1 ovarian, over 78.1 µM; in the assay on OVCAR-4 ovarian, over 100 µM; in the assay with OVCAR-3 ovarian, over 53.9 µM; in the assay on U251 CNS, over 100 µM. For the same compound, the TGI in the assay on COLO 205 colon was 42.3 µM; in the assay with A549 NSCLC, over 100 µM.

The values are drawn from PubChem BioAssay (NCI).
